Data as given in patent US20220096454A1, “CARBOXYLIC ACID DERIVATIVES” (Merck Patent GmbH, priority 2018, published 2022).

How the values were obtained:
Tankyrases = settings: read-out: EC50 [M] TNKS cellular assay; increase of Axin2 level in colon carcinoma cell line DLD1, 24 hours
Description: Measurement of Cellular Inhibition of Tankyrase
Cells of the colon carcinoma cell line DLD1 are plated in 96 well plates with 1.5×10^4 cells per well. Next day, cells are treated with a serial dilution of test compound in seven steps as triplicates with a final DMSO concentration of 0.3%. […] The amount of isolated Axin2 protein is determined in a Luminex^200 machine (Luminex Corporation) according to the manufacturer's instruction by counting 100 events per well. […] As controls cells are treated with solvent alone (neutral control) and with a Tankyrase reference inhibitor IWR-2 (3E−06 M) which refers as control for maximum increase of Axin2. For analysis, the obtained data are normalized against the untreated solvent control and fitted for determination of the EC50 values using the Assay Explorer software (Accelrys).

TNKS2 = target: T1, TNKS2 (Homo sapiens, UniProt Q9H2K2); assay: TNKS2 activity ELISA (autoparsylation assay); format: biochemical; settings: GST-tagged Tnks-2 (873-1166 aa), 10 μM bio-NAD, 1 hour at 30° C.
T1 construct: GST-tagged Tnks-2 (873-1166 aa, prepared in-house); made in house
T1 sequence (Q9H2K2 873-1166): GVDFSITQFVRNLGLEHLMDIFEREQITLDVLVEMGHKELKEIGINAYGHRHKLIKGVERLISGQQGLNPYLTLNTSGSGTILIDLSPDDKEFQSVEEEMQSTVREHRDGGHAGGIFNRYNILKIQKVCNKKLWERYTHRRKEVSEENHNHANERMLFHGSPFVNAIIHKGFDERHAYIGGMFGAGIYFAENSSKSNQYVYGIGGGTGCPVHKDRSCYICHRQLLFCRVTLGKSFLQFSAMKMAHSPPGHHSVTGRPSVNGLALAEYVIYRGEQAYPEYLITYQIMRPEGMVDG
Description: (§1) Description of the TNKS1 and TNKS2 ELISA Assay
(§2) Biochemical activity testing of TNKS 1 and 2: activity ELISA (Autoparsylation assay)
(§3) For analysis of autoparsylation activity of TNKS 1 and 2 an activity ELISA is performed: In the first step GST tagged TNKS is captured on a Glutathione coated plate. Then the activity assay with biotinylated NAD is performed in the absence/presence of the compounds. During the enzymatic reaction GST tagged TNKS transfers biotinylated ADP-ribose to itself from biotinylated NAD as co-substrate. For the detection streptavidin-HRP conjugate is added that binds to the biotinylated TNKS and is thereby captured to the plates. The amount of biotinylated resp. autoparsylated TNKS is detected with a luminescence substrate for HRP. The level of the luminescence signal correlates directly with the amount of autoparsylated TNKS and therefore with activity of TNKS.
(§4) The activity ELISA is performed in 384 well Glutathione coated microtiter plates (Express capture Glutathione coated plate, Biocat, Heidelberg, Germany). The plates are pre-equilibrated with PBS. […] The plates are washed 3 times with PBS-Tween-20. The wells are blocked by incubation at room temperature for 20 minutes with 50 μl blocking buffer (PBS, 0.05% Tween-20, 0.5% BSA). Afterwards the plates are washed 3 times with PBS-Tween-20. […] The reaction is stopped by 3 times washing with PBS-Tween-20. For the detection 50 μl of 20 ng/μl Streptavidin, HRP conjugate (MoBiTec, Göttingen, Germany) in PBS/0.05% Tween-20/0.01% BSA are added and the plates are incubated for 30 minutes at room temperature. After three times washing with PBS-Tween-20 50 μl of SuperSignal ELISA Femto Maximum sensitivity substrate solution (ThermoFisherScientific (Pierce), Bonn, Germany) are added. Following a 1 minute incubation at room temperature luminescence signals are measured with an Envision multimode reader (Perkin Elmer LAS Germany GmbH) at 700 nm. The full value used is the inhibitor-free reaction. […] The inhibitory values (IC50) are determined using either the program Symyx Assay Explorer® or Condosseo® from GeneData.

TNKS1 = target: T2, TNKS1 (Homo sapiens, UniProt O95271); assay: TNKS1 activity ELISA (autoparsylation assay); format: biochemical; settings: GST-tagged Tnks-1 (1023-1327 aa), 10 μM bio-NAD, 1 hour at 30° C.
T2 construct: GST-tagged Tnks-1 (1023-1327 aa, prepared in-house); made in house
T2 sequence (O95271 1023-1327): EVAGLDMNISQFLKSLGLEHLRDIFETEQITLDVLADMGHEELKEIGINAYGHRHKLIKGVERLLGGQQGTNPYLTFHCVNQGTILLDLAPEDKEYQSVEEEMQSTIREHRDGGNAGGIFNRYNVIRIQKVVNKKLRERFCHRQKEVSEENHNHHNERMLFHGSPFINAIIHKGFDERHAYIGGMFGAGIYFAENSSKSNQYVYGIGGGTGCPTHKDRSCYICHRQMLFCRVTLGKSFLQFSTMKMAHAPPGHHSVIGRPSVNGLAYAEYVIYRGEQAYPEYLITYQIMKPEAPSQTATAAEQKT
Description: as §1, §2, §3, §4

Row | SMILES | EC50 (Tankyrases) [M] | IC50 (TNKS2) [nM] | IC50 (TNKS1) [nM]
1 | COc1ccc(N(C)C(=O)N2CCC(C(=O)c3ccc4c(C(=O)O)nn(C)c4c3)CC2)cc1 [Compound C11, 6-{1-[(4-Methoxy-phenyl)-methyl-carbamoyl]-piperidine-4-carbonyl}-1-methyl-1H-indazole-3-carboxylic Acid] | 3.9e-06 | 0.74 | 1.4
2 | CN(C(=O)N1CCC(C(=O)c2ccc3c(cnn3C)c2)CC1)c1cccc(C(=O)O)c1 [Compound C24, 3-{Methyl-[4-(1-methyl-1H-indazole-5-carbonyl)-piperidine-1-carbonyl]-amino}-benzoic Acid] | 6.4e-07 | 0.63 | 1.3
3 | COc1ccc(N(C)C(=O)N2CCC(C(=O)c3ccc4c(c3)cc(C(=O)O)n4C)CC2)cc1 [Compound C7, 5-{1-[(4-Methoxy-phenyl)-methyl-carbamoyl]-piperidine-4-carbonyl}-1-methyl-1H-indole-2-carboxylic Acid] | 6.31e-08 | 1.3 | 1.3
4 | CCN(C(=O)N1CCC(C(=O)c2ccc3c(c2)c(C(=O)O)nn3C)CC1)c1ccc(OC)cc1 [Compound C16, 5-{1-[Ethyl-(4-methoxy-phenyl)-carbamoyl]-piperidine-4-carbonyl}-1-methyl-1H-indazole-3-carboxylic Acid] | 9.7e-07 | 4.5 | 9.7
5 | CCN(C(=O)N1CCC(C(=O)c2ccc3nnn(C)c3c2)CC1)c1ccc(C(=O)O)cc1 [Compound C35, 4-{Ethyl-[4-(3-methyl-3H-benzotriazole-5-carbonyl)-piperidine-1-carbonyl]-amino}-benzoic Acid] | 3.1e-07 | 0.192 | 0.472
6 | CN(C(=O)N1CCC(C(=O)c2ccc3cc(C(=O)O)n(C)c3c2)CC1)c1ccc(F)cc1 [Compound C1, 6-{1-[(4-Fluoro-phenyl)-methyl-carbamoyl]-piperidine-4-carbonyl}-1-methyl-1H-indole-2-carboxylic Acid] | 2.1e-07 | 1.1 | 3.5
7 | CCN(C(=O)N1CCC(C(=O)c2ccc3c(c2)ncn3C)CC1)c1cccc(C(=O)O)c1 [Compound C33, 3-{Ethyl-[4-(1-methyl-1H-benzimidazole-5-carbonyl)-piperidine-1-carbonyl]-amino}-benzoic Acid] | 3.6e-06 | 1.5 | 3.3
8 | CCN(C(=O)N1CCC(C(=O)c2ccc3c(cnn3C)c2)CC1)c1cccc(C(=O)O)c1 [Compound C25, 3-{Ethyl-[4-(1-methyl-1H-indazole-5-carbonyl)-piperidine-1-carbonyl]-amino}-benzoic Acid] | 4.87e-08 | 0.89 | 1.8
9 | CN(C(=O)N1CCC(C(=O)c2ccc3nnn(C)c3c2)CC1)c1ccc(C(=O)O)cc1 [Compound C34, 4-{Methyl-[4-(3-methyl-3H-benzotriazole-5-carbonyl)-piperidine-1-carbonyl]-amino}-benzoic Acid] | 3.2e-06 | 1.1 | 2.6
10 | CCN(C(=O)N1CCC(C(=O)c2ccc3cnn(C)c3c2)CC1)c1cccc(C(=O)O)c1 [Compound C20, 3-{Ethyl-[4-(1-methyl-1H-indazole-6-carbonyl)-piperidine-1-carbonyl]-amino}-benzoic Acid] | 1.93e-07 | 0.65 | 0.58
11 | CN(C(=O)N1CCC(C(=O)c2ccc3c(c2)cc(C(=O)O)n3C)CC1)c1ccc(F)cc1 [Compound C5, 5-{1-[(4-Fluoro-phenyl)-methyl-carbamoyl]-piperidine-4-carbonyl}-1-methyl-1H-indole-2-carboxylic acid] | 7.4e-08 | 1.4 | 1
12 | CN(C(=O)N1CCC(C(=O)c2ccc3c(C(=O)O)nn(C)c3c2)CC1)c1ccc(F)cc1 [Compound C9, 6-{1-[(4-Fluoro-phenyl)-methyl-carbamoyl]-piperidine-4-carbonyl}-1-methyl-1H-indazole-3-carboxylic Acid] | 4.9e-06 | 1.66 | 3.29
13 | COc1ccc(N(C)C(=O)N2CCC(C(=O)c3ccc4cc(C(=O)O)n(C)c4c3)CC2)cc1 [Compound C3, 6-{1-[(4-Methoxy-phenyl)-methyl-carbamoyl]-piperidine-4-carbonyl}-1-methyl-1H-indole-2-carboxylic Acid] | 1.3e-07 | 2.7 | 1.8
14 | CN(C(=O)N1CCC(C(=O)c2ccc3cnn(C)c3c2)CC1)c1ccc(C(=O)O)nc1 [Compound C21, 5-{Methyl-[4-(1-methyl-1H-indazole-6-carbonyl)-piperidine-1-carbonyl]-amino}-pyridine-2-carboxylic Acid] | 1.5e-05 | 14 | 37
15 | CN(C(=O)N1CCC(C(=O)c2ccc3c(c2)ncn3C)CC1)c1cccc(C(=O)O)c1 [Compound C32, 3-{Methyl-[4-(1-methyl-1H-benzimidazole-5-carbonyl)-piperidine-1-carbonyl]-amino}-benzoic Acid] | – | 7.8 | 19
16 | CN(C(=O)N1CCC(C(=O)c2ccc3cnn(C)c3c2)CC1)c1cccc(C(=O)O)c1 [Compound C19, 3-{Methyl-[4-(1-methyl-1H-indazole-6-carbonyl)-piperidine-1-carbonyl]-amino}-benzoic Acid] | 1.4e-06 | 1.4 | 2.2
17 | CCN(C(=O)N1CCC(C(=O)c2ccc3cc(C(=O)O)n(C)c3c2)CC1)c1ccc(F)cc1 [Compound C2, 6-{1-[Ethyl-(4-fluoro-phenyl)-carbamoyl]-piperidine-4-carbonyl}-1-methyl-1H-indole-2-carboxylic Acid] | 1.9e-08 | 0.49 | 0.67
18 | CN(C(=O)N1CCC(C(=O)c2ccc3ncn(C)c3c2)CC1)c1ccc(C(=O)O)cc1 [Compound C26, 4-{Methyl-[4-(3-methyl-3H-benzoimidazole-5-carbonyl)-piperidine-1-carbonyl]-amino}-benzoic Acid] | 1.1e-06 | 0.62 | 1.5
19 | CCN(C(=O)N1CCC(C(=O)c2ccc3ncn(C)c3c2)CC1)c1cccc(C(=O)O)c1 [Compound C29, 3-{Ethyl-[4-(3-methyl-3H-benzimidazole-5-carbonyl)-piperidine-1-carbonyl]-amino}-benzoic Acid] | 4.75e-06 | 3 | 3.4
20 | CCN(C(=O)N1CCC(C(=O)c2ccc3c(c2)cc(C(=O)O)n3C)CC1)c1ccc(F)cc1 [Compound C6, 5-{1-[Ethyl-(4-fluoro-phenyl)-carbamoyl]-piperidine-4-carbonyl}-1-methyl-1H-indole-2-carboxylic Acid] | 5.9e-09 | 1.4 | 0.41
21 | CCN(C(=O)N1CCC(C(=O)c2ccc3c(c2)c(C(=O)O)nn3C)CC1)c1ccc(F)cc1 [Compound C14, 5-{1-[Ethyl-(4-fluoro-phenyl)-carbamoyl]-piperidine-4-carbonyl}-1-methyl-1H-indazole-3-carboxylic Acid] | 9.4e-06 | 5.91 | 12.4
22 | CCN(C(=O)N1CCC(C(=O)c2ccc3c(c2)ncn3C)CC1)c1ccc(C(=O)O)cc1 [Compound C31, 4-{Ethyl-[4-(1-methyl-1H-benzimidazole-5-carbonyl)-piperidine-1-carbonyl]-amino}-benzoic Acid] | 3.69e-07 | 2.6 | 3.5
23 | CN(C(=O)N1CCC(C(=O)c2ccc3c(c2)ncn3C)CC1)c1ccc(C(=O)O)cc1 [Compound C30, 4-{Methyl-[4-(1-methyl-1H-benzimidazole-5-carbonyl)-piperidine-1-carbonyl]-amino}-benzoic Acid] | 6e-06 | 10 | 17
24 | CN(C(=O)N1CCC(C(=O)c2ccc3ncn(C)c3c2)CC1)c1cccc(C(=O)O)c1 [Compound C28, 3-{Methyl-[4-(3-methyl-3H-benzimidazole-5-carbonyl)-piperidine-1-carbonyl]-amino}-benzoic Acid] | – | 23 | 53
25 | CN(C(=O)N1CCC(C(=O)c2ccc3c(c2)c(C(=O)O)nn3C)CC1)c1ccc(F)cc1 [Compound C13, 5-{1-[(4-Fluoro-phenyl)-methyl-carbamoyl]-piperidine-4-carbonyl}-1-methyl-1H-indazole-3-carboxylic Acid] | – | 49.9 | 115
